According to PubChem BioAssay AID308 (DTP/NCI, 2004):
Several values for one entry are separate records, joined by “and”; a condition that tells them apart may be missing. Equal values may be shown once. Toxic doses and inconclusive results are not listed.

System: BDF1 mice, L1210 6-MP/6-TG resistant leukemia ip, survival T/C
Assay: NCI In Vivo Anticancer Drug Screen. Data for tumor model L1210 Leukemia resistant to 6-MP and 6-Thioguanine; NSC 755, NSC 752 (intraperitoneal) in B6D2F1 (BDF1) mice
Conditions: endpoint: mean survival time, higher = longer survival
Method: The antitumor activity of compounds was measured in mice bearing transplantable tumors. Survival or tumor size were measured and the results are expressed as the measurement made in the treated group (T) divided by the measurement made in the vehicle treated control group (C). The tumor model used in this assay is L1210 Leukemia resistant to 6-MP and 6-Thioguanine; NSC 755, NSC 752 (intraperitoneal) in B6D2F1 (BDF1) mice

[1] = dose: 4.0 mg/kg/injection, schedule: Q01DX Z (ip), vehicle: carboxymethylcellulose (CMC)

Q: How did the T/C (dose: 10.0 mg/kg/injection, schedule: Q01DX Z (ip), vehicle: other) turn out when `C[C@@H]1C[C@H]2CC[C@H](O2)[C@H](C)C(=O)O[C@@H](C)C[C@@H]2CC[C@@H](O2)[C@@H](C)C(=O)O[C@H](C)C[C@H]2CC[C@H](O2)[C@H](C)C(=O)O[C@@H](C)C[C@@H]2CC[C@@H](O2)[C@@H](C)C(=O)O1` was run?
A: 101 % of control

Q: And the T/C (dose: 15.0 mg/kg/injection, schedule: Q01DX Z (ip), vehicle: other)?
A: 101 % of control

Q: And the T/C (dose: 20.0 mg/kg/injection, schedule: Q01DX Z (ip), vehicle: other)?
A: 104 % of control

Q: And the T/C (dose: 30.0 mg/kg/injection, schedule: Q01DX Z (ip), vehicle: other)?
A: 94 % of control

Q: And the T/C (dose: 45.0 mg/kg/injection, schedule: Q01DX Z (ip), vehicle: carboxymethylcellulose (CMC))?
A: 100 % of control

Q: And the T/C (dose: 90.0 mg/kg/injection, schedule: Q01DX Z (ip), vehicle: carboxymethylcellulose (CMC))?
A: 93 % of control

Q: What about the T/C (dose: 180.0 mg/kg/injection, schedule: Q01DX Z (ip), vehicle: carboxymethylcellulose (CMC)) of the same compound?
A: 96 % of control

Q: And the T/C (dose: 360.0 mg/kg/injection, schedule: Q01DX Z (ip), vehicle: carboxymethylcellulose (CMC))?
A: 95 % of control

Q: For `N[C@@H](Cc1ccc(N(CCCl)CCCl)cc1)C(=O)O`, which T/C [1] is on record?
A: 107 % of control

Q: What about the T/C (dose: 6.0 mg/kg/injection, schedule: Q01DX Z (ip), vehicle: carboxymethylcellulose (CMC)) of the same compound?
A: 122 % of control

Q: And the T/C (dose: 8.0 mg/kg/injection, schedule: Q01DX Z (ip), vehicle: carboxymethylcellulose (CMC))?
A: 119 % of control

Q: And the T/C (dose: 12.0 mg/kg/injection, schedule: Q01DX Z (ip), vehicle: carboxymethylcellulose (CMC))?
A: 122 % of control

Q: What does the source list for `CN(C)[C@@H]1C(=O)C(C(=O)NCc2nc3[nH]cnc(=S)c3[nH]2)=C(O)[C@@]2(O)C(=O)C3=C(O)c4c(O)cccc4[C@@](C)(O)[C@H]3C[C@@H]12`?
A: T/C (dose: 50.0 mg/kg/injection, schedule: Q01DX009 (ip), vehicle: carboxymethylcellulose (CMC)): 105 % of control; T/C (dose: 100.0 mg/kg/injection, schedule: Q01DX009 (ip), vehicle: carboxymethylcellulose (CMC)): 104 % of control; T/C (dose: 400.0 mg/kg/injection, schedule: Q01DX009 (ip), vehicle: carboxymethylcellulose (CMC)): 93 % of control

Q: `OCn1cnc2c(SC3CCCC3)ncnc21` was tested. Which T/C (dose: 12.5 mg/kg/injection, schedule: Q01DX009 (ip), vehicle: other) did it give?
A: 91 % of control

Q: And the T/C (dose: 50.0 mg/kg/injection, schedule: Q01DX009 (ip), vehicle: other)?
A: 89 % of control and 93 % of control

Q: With `Oc1cc(CN(CCCl)CCCl)c(O)cc1CN(CCCl)CCCl` as the compound, how does the T/C (dose: 0.5 mg/kg/injection, schedule: Q01DX Z (ip), vehicle: saline) read?
A: 173 % of control

Q: What about the T/C (dose: 2.0 mg/kg/injection, schedule: Q01DX Z (ip), vehicle: carboxymethylcellulose (CMC)) of the same compound?
A: 153 % of control and 184 % of control

Q: And the T/C [1]?
A: 102 % of control and 108 % of control

Q: `C[N+](C)(C)c1ncnc2nc[nH]c12` was tested. Which T/C (dose: 11.25 mg/kg/injection, schedule: Q01DX Z (ip), vehicle: saline) did it give?
A: 101 % of control

Q: And the T/C (dose: 22.5 mg/kg/injection, schedule: Q01DX Z (ip), vehicle: saline)?
A: 100 % of control

Q: What about the T/C (dose: 45.0 mg/kg/injection, schedule: Q01DX Z (ip), vehicle: saline) of the same compound?
A: 102 % of control

Q: What about the T/C (dose: 50.0 mg/kg/injection, schedule: Q01DX Z (ip), vehicle: saline) of the same compound?
A: 105 % of control

Q: And the T/C (dose: 90.0 mg/kg/injection, schedule: Q01DX Z (ip), vehicle: saline)?
A: 94 % of control

Q: And the T/C (dose: 100.0 mg/kg/injection, schedule: Q01DX Z (ip), vehicle: saline)?
A: 99 % of control

Q: With `O=c1cnn(C2OC(CO)C(O)C2O)c(=O)[nH]1` (stereo unspecified) as the compound, how does the T/C (dose: 62.5 mg/kg/injection, schedule: Q01DX Z (ip), vehicle: saline) read?
A: 115 % of control

Q: What about the T/C (dose: 500.0 mg/kg/injection, schedule: Q01DX Z (ip), vehicle: saline) of the same compound?
A: 120 % of control

Q: And the T/C (dose: 750.0 mg/kg/injection, schedule: Q01DX Z (ip), vehicle: saline)?
A: 110 % of control

Q: What about the T/C (dose: 1000.0 mg/kg/injection, schedule: Q01DX Z (ip), vehicle: saline) of the same compound?
A: 109 % of control

Q: Which results are given for `Nc1ncnc2[nH]ncc12`?
A: T/C (dose: 7.5 mg/kg/injection, schedule: Q01DX Z (ip), vehicle: carboxymethylcellulose (CMC)): 105 % of control; T/C (dose: 10.0 mg/kg/injection, schedule: Q01DX Z (ip), vehicle: carboxymethylcellulose (CMC)): 92 % of control; T/C (dose: 15.0 mg/kg/injection, schedule: Q01DX Z (ip), vehicle: carboxymethylcellulose (CMC)): 94 % of control; T/C (dose: 25.0 mg/kg/injection, schedule: Q01DX Z (ip), vehicle: carboxymethylcellulose (CMC)): 97 % of control

Q: Which results are given for `C1CN1c1nc(N2CC2)nc(N2CC2)n1`?
A: T/C (dose: 0.25 mg/kg/injection, schedule: Q01DX Z (ip), vehicle: saline): 118 % of control; T/C (dose: 1.0 mg/kg/injection, schedule: Q01DX Z (ip), vehicle: saline): 109 % of control
